According to patent publication US20250295648A1 (priority 2024, published 2025):

Assays:
[1] = target: T1, 5-HT1A receptors (Homo sapiens, UniProt P08908); conditions: cited from earlier work
T1 sequence (P08908 1-422): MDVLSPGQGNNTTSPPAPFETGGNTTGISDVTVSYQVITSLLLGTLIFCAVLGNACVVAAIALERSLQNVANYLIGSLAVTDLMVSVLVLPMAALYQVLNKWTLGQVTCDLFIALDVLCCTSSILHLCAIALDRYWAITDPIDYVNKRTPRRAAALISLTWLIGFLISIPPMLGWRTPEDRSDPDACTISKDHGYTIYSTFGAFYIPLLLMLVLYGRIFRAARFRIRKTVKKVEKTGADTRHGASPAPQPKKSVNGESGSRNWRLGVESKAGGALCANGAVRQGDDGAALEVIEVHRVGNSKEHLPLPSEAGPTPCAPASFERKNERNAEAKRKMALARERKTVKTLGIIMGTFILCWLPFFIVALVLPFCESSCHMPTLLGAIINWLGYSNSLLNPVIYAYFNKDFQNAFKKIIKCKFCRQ

[2] = system: L-DOPA-induced dyskinesia in Parkinson's disease patients; assay: Unified Dyskinesia Rating Scale (UDysRS) after 150% L-DOPA challenge; conditions: for UDysRS Part 3+4 score, change from baseline: PPS; for UDysRS Parts 3 and 4 most severe, collected value, mean / UDysRS Parts 3 and 4 most severe, collected value, median / UDysRS Parts 3 and 4 most severe, absolute change from baseline, mean / UDysRS Parts 3 and 4 most severe, absolute change from baseline, median / UDysRS Parts 3 and 4 most severe, relative change from baseline (%), mean / UDysRS Parts 3 and 4 most severe, relative change from baseline (%), median: most severe session
Procedure: Patients were rated for dyskinesia at baseline and on days 28 (at end of up-titration period) and 42 (end of stable dosing period). Because the level of dyskinesia experienced by patients can vary over time, they were given 150% (i.e., 1.5×) of their regular L-DOPA dose (up to a maximum of 250 mg) as a challenge 30 min before each dyskinesia assessment to improve comparability between patients and between visits. Patients were filmed 30, 60 and 90 min after dosing with L-DOPA (˜5 min of filming each time). LID was assessed using the Unified Dyskinesia Rating Scale (UDysRS). Changes from baseline are shown for total score (i.e., Parts 1 to 4), for total objective score (i.e., Parts 3+4), and for the sum of Part 3 objective impairment assessment scores. Because objective LID assessment was carried out at 3 time-points (30, 60 and 90 min) following L-DOPA challenge, the above parameters were analyzed based on the most severe of the three scores as well as on the average score of the 3 time points.
The patient took 150% of their normal L-DOPA dose 30 minutes prior to the start of efficacy assessments (UDysRS) at Day 1 (Visit 2), Day 28 (Visit 6) and Day 42 (Visit 7).
The UDysRS is a rating instrument designed to assess the core features of dyskinesia in Parkinson's Disease. The UDysRS consists of 4 parts: • r. Part I, historical disability with regard to the patient's perceptions of the impact on activities of ADL of on-dyskinesia. • s. Part II, historical disability with regard to the patient's perceptions of the impact on ADL of off-dystonia. • t. Part III, objective impairment, which assesses severity of dyskinesia, affected body parts, and type of impairment (choreic vs. dystonic). • u. Part IV, objective disability, based on an evaluation of Part III activities.
Each item in the UDysRS is scored from 0 to 4, with a possible maximum total score of 104.
The UDysRS assessment would be performed at baseline (Day 1, Visit 2), Day 28 and Day 42 (Visits 6 and 7) starting approximately 30 minutes after the L-DOPA challenge on these days.
The data for all 3 assessments performed at each visit would be entered in the eCRF and the Investigator will highlight which of the assessments, corresponding to the assessment where the patient had most severe dyskinesia, that would be used in the descriptive summaries of data.
Change from baseline in the UDysRS total score to Visit 6 (Day 28) and Visit 7 (Day 42) respectively would be summarized using descriptive statistics. […] The same analysis would be done for UDysRS total objective score Part III and IV only.
The baseline value of the dependent variable has been included in the model as a continuous covariate.

[3] = 5 patients co-treated with amantadine
[4] = Full analysis set, Visit 2 Baseline
[5] = Full analysis set, Visit 6 Clinic Efficacy Visit
[6] = Full analysis set, Visit 7 Clinic Efficacy Visit
[7] = Full analysis set, average of assessment sessions Part 3 and Part 4, Visit 2 Baseline
[8] = Full analysis set, average of assessment sessions Part 3 and Part 4, Visit 6 Clinic Efficacy Visit
[9] = Full analysis set, average of assessment sessions Part 3 and Part 4, Visit 7 Clinic Efficacy Visit
[10] = Full analysis set, average of assessment sessions, highest item score, Visit 2 Baseline
[11] = Full analysis set, average of assessment sessions, highest item score, Visit 6 Clinic Efficacy Visit
[12] = Full analysis set, average of assessment sessions, highest item score, Visit 7 Clinic Efficacy Visit
[13] = Full analysis set, highest item score, Visit 2 Baseline
[14] = Full analysis set, highest item score, Visit 6 Clinic Efficacy Visit
[15] = Full analysis set, highest item score, Visit 7 Clinic Efficacy Visit
[16] = Visit 2 Baseline, per protocol analysis set, N = 15

## Cc1ccc(CNCC2(F)CCN(C(=O)c3ccc(F)c(Cl)c3)CC2)nc1 [NLX-112, (3-chloro-4-fluoro-phenyl)-[4-fluoro-4-{[(5-methyl-pyridin-2-ylmethyl)-amino]-methyl}piperidin-1-yl]methanone]
[1]
  agonist efficacy at 5-HT1A receptors: full agonist properties
  selectivity for 5-HT1A receptors: exceptional selectivity
[2]; [3]
  UDysRS Part 3 + 4, mean change from baseline: −4.4
  UDysRS Total, mean change from baseline: −4.0
[2]; Day 28, average of 3 assessments (30, 60, 90 min), p=0.0065
  UDysRS Part 3+4 score, change from baseline: −2.49 points
[2]; Day 28, most severe assessment, PPS n=15, p=0.0281 vs baseline
  UDysRS total score (Parts 1-4), change from baseline: −4.1 points
[2]; Day 28, most severe assessment, not statistically significant
  UDysRS Part 3+4 score, change from baseline: −1.7 points
[2]; Day 28 and Day 42, within NLX-112 group
  UDysRS sum of Part 3 items, average of all 3 assessments, vs baseline: significant reduction
[2]; Day 28 or Day 42
  UDysRS total score or total objective (Parts 3 and 4) score, change from baseline, NLX-112 vs placebo: no significant differences
[2]; Day 42, average of 3 assessments (30, 60, 90 min), p=0.0005
  UDysRS Part 3+4 score, change from baseline: −3.31 points
[2]; Day 42, most severe assessment, PPS n=15, p=0.0016 vs baseline
  UDysRS total score (Parts 1-4), change from baseline: −6.3 points
[2]; Day 42, most severe assessment, p=0.0038 vs baseline
  UDysRS Part 3+4 score, change from baseline: −3.1 points
[2]; [4]
  UDysRS Parts 1, 2, 3, and 4 most severe, collected value, mean: 31.8
  UDysRS Parts 1, 2, 3, and 4 most severe, collected value, median: 31.0
[2]; [5]
  UDysRS Parts 1, 2, 3, and 4 most severe, absolute change from baseline, mean: −4.1
  UDysRS Parts 1, 2, 3, and 4 most severe, absolute change from baseline, median: −2.0
  UDysRS Parts 1, 2, 3, and 4 most severe, collected value, mean: 27.5
  UDysRS Parts 1, 2, 3, and 4 most severe, collected value, median: 28.0
  UDysRS Parts 1, 2, 3, and 4 most severe, relative change from baseline (%), mean: −10.2%
  UDysRS Parts 1, 2, 3, and 4 most severe, relative change from baseline (%), median: −6.45%
[2]; [6]
  UDysRS Parts 1, 2, 3, and 4 most severe, absolute change from baseline, mean: −6.3
  UDysRS Parts 1, 2, 3, and 4 most severe, absolute change from baseline, median: −8.0
  UDysRS Parts 1, 2, 3, and 4 most severe, collected value, mean: 25.3
  UDysRS Parts 1, 2, 3, and 4 most severe, collected value, median: 24.0
  UDysRS Parts 1, 2, 3, and 4 most severe, relative change from baseline (%), mean: −19.0%
  UDysRS Parts 1, 2, 3, and 4 most severe, relative change from baseline (%), median: −25.8%
[2]; [7]
  UDysRS Parts 1, 2, 3, and 4 average, collected value, mean: 30.43
  UDysRS Parts 1, 2, 3, and 4 average, collected value, median: 29.67
[2]; [8]
  UDysRS Parts 1, 2, 3, and 4 average, absolute change from baseline, mean: −4.82
  UDysRS Parts 1, 2, 3, and 4 average, absolute change from baseline, median: −3.00
  UDysRS Parts 1, 2, 3, and 4 average, collected value, mean: 25.33
  UDysRS Parts 1, 2, 3, and 4 average, collected value, median: 25.33
  UDysRS Parts 1, 2, 3, and 4 average, relative change from baseline (%), mean: −9.33%
  UDysRS Parts 1, 2, 3, and 4 average, relative change from baseline (%), median: −10.6%
[2]; [9]
  UDysRS Parts 1, 2, 3, and 4 average, absolute change from baseline, mean: −6.51
  UDysRS Parts 1, 2, 3, and 4 average, absolute change from baseline, median: −7.67
  UDysRS Parts 1, 2, 3, and 4 average, collected value, mean: 23.64
  UDysRS Parts 1, 2, 3, and 4 average, collected value, median: 23.00
  UDysRS Parts 1, 2, 3, and 4 average, relative change from baseline (%), mean: −19.5%
  UDysRS Parts 1, 2, 3, and 4 average, relative change from baseline (%), median: −21.9%
[2]; [10]
  UDysRS Parts 3 and 4 average, collected value, mean: 13.98
  UDysRS Parts 3 and 4 average, collected value, median: 13.17
[2]; [11]
  UDysRS Parts 3 and 4 average, absolute change from baseline, mean: −2.49
  UDysRS Parts 3 and 4 average, absolute change from baseline, median: −1.67
  UDysRS Parts 3 and 4 average, collected value, mean: 11.60
  UDysRS Parts 3 and 4 average, collected value, median: 10.33
  UDysRS Parts 3 and 4 average, relative change from baseline (%), mean: −17.3%
  UDysRS Parts 3 and 4 average, relative change from baseline (%), median: −20.0%
[2]; [12]
  UDysRS Parts 3 and 4 average, absolute change from baseline, mean: −3.31
  UDysRS Parts 3 and 4 average, absolute change from baseline, median: −3.33
  UDysRS Parts 3 and 4 average, collected value, mean: 10.78
  UDysRS Parts 3 and 4 average, collected value, median: 9.67
  UDysRS Parts 3 and 4 average, relative change from baseline (%), mean: −25.3%
  UDysRS Parts 3 and 4 average, relative change from baseline (%), median: −31.5%
[2]; [13]
  UDysRS Parts 3 and 4 most severe, collected value, mean: 15.3
  UDysRS Parts 3 and 4 most severe, collected value, median: 13.5
[2]; [14]
  UDysRS Parts 3 and 4 most severe, absolute change from baseline, mean: −1.7
  UDysRS Parts 3 and 4 most severe, absolute change from baseline, median: −1.0
  UDysRS Parts 3 and 4 most severe, collected value, mean: 13.8
  UDysRS Parts 3 and 4 most severe, collected value, median: 12.0
  UDysRS Parts 3 and 4 most severe, relative change from baseline (%), mean: −15.8%
  UDysRS Parts 3 and 4 most severe, relative change from baseline (%), median: −8.33%
[2]; [15]
  UDysRS Parts 3 and 4 most severe, absolute change from baseline, mean: −3.1
  UDysRS Parts 3 and 4 most severe, absolute change from baseline, median: −4.0
  UDysRS Parts 3 and 4 most severe, collected value, mean: 12.4
  UDysRS Parts 3 and 4 most severe, collected value, median: 11.0
  UDysRS Parts 3 and 4 most severe, relative change from baseline (%), mean: −21.0%
  UDysRS Parts 3 and 4 most severe, relative change from baseline (%), median: −31.6%
[2]; [16]
  UDysRS Parts 1, 2, 3, and 4 average, collected value, mean: 30.16
  UDysRS Parts 1, 2, 3, and 4 average, collected value, median: 29.33
  UDysRS Parts 1, 2, 3, and 4 most severe, collected value, mean: 31.6
  UDysRS Parts 1, 2, 3, and 4 most severe, collected value, median: 31.0
  UDysRS Parts 3 and 4 average, collected value, mean: 14.09
  UDysRS Parts 3 and 4 average, collected value, median: 13.00
